The text below walks through data of patent US11998550B2, “Trametinib prevents mesothelial-mesenchymal transition and ameliorates abdominal adhesion and pulmonary fibrosis formation” (Thomas Jefferson University, priority 2017, dated 2024).

SMILES strings stand for the structures.

The nature of one data set: Solubility in water. The format is physicochemical.
The test system of a further data set is C57BL/6 mice. Briefly: Cecal abrasion model of intra-abdominal adhesion formation, drug by osmotic pump for eight days.
Data set [1] deals with phospho-MEK1/2, phospho-Erk1/2, FNEDA, αSMA, phospho-Smad2 (linker). Briefly: Western analysis of TGF-β1 treated rat peritoneal mesothelial cells. The format is cell-based. The settings on record: Western blot, FIG. 2. On the procedure:
These insights led us to explore the potential mechanisms of action of trametinib using Western blotting analyses (FIG. 2). […] These increases in gene expression of phosphor-Erk 1/2, FNEDA, αSMA and p-SMAD2 (linker) were blocked by as low a concentration of trametinib as 2 nM (FIG. 2).
The experiments in this study were approved by the Institutional Animal Care and Use Committee at Thomas Jefferson University, and were performed in accordance with the National Institutes of Health guidelines for the care and handling of laboratory animals. RPMCs were isolated and cultured as described previously. […]
RPMCs were lysed in ice-cold modified RIPA buffer with protease inhibitor cocktail (50 mM/L Tris-HCl, 1% NP-40, 0.25% Na-deoxycholate, 150 mM/L NaCl, 1 mM/L EDTA, 1 mmol/L phenylmethyl sulfonyl fluoride, 1 mM/L sodium orthovanadate, 1 mM/L NaF, pH 7.4). Equivalent amounts of homogenate (50 μg/well), determined by Coomassie blue assay, were separated by sodium dodecyl sulfate polyacrylamide gel electrophoresis (SDS-PAGE), transferred to either nitrocellulose or PVDF membranes, and detected by SuperSignal West Femto or Pico chemiluminescence.
On the technique in general: A western blot detects proteins with antibodies after separation by electrophoresis.

The subject of data set [2] is rat peritoneal mesothelial cells. Briefly: TGF-β induced mesothelial/mesenchymal transition (MMT), cell morphology. In kind it is cell-based. The note with it: trametinib alone, no TGF-β, five days. On the procedure: Isolated mesothelial cells were incubated under control conditions without either TGF-β or trametinib, with TGF-β or trametinib alone, or with both TGF-β and trametinib for five days (FIGS. 1 and 2).
The experiments in this study were approved by the Institutional Animal Care and Use Committee at Thomas Jefferson University, and were performed in accordance with the National Institutes of Health guidelines for the care and handling of laboratory animals. RPMCs were isolated and cultured as described previously. Briefly, Sprague Dawley rats weighing 150 g-250 g, purchased from Jackson Laboratory, were injected intra-peritoneally with 30 ml of 0.25% trypsin/2.21 mM EDTA under Isoflurane anesthesia and were kept on the metal pad warmed to 37° C. for one hour; after which the abdominal fluid was collected and centrifuged at 300 g for 10 minutes. The isolated pelleted cells were re-suspended and cultured in DMEM/F12 medium supplemented with 10% (v/v) FBS at 37° C. in a humidified atmosphere of 5% CO2 in air. The RPMCs, from the fourth to seventh passages (split ratio 1:4), at 90% confluence were used for the experiments. The cells were treated either with 10 ng/ml of TGF-β1 (R&D systems) alone, or with TGF-β1 and the MEK1/2 inhibitor, Trametinib (2 or 5 nM).

Data set [3] has the same test system. The note with it: previous finding, ref [10]; cited from earlier work.

From the text for C57BL/6 mice: Mice were allowed to acclimate in the animal facility for at least one week prior to surgery, given free access to standard chow and water and a 12-h light-dark cycle in standard acrylic cages with wood chip bedding. Animals were randomly assigned into either an experimental group (laparotomy and cecal abrasion) or a control group (laparotomy only).
Briefly, mice underwent induction and maintenance anesthesia with 1-3% isofluorane with supplemental oxygen. After adequate sedation was achieved, mice were weighed and 0.1 mg/kg subcutaneous Buprenex (Hospira, Inc., Lake Forest, IL) was administered to ensure analgesia. The ventral surface was clipped along the midline and the skin was sterilized with betadine. A 2 cm midline incision was made subxiphoid to avoid injuring the bladder and the cecum was identified and externalized. The anti-mesenteric side of the cecum was gently swiped 30 times with gauze then returned to the abdomen. The incision was closed with a double layer of sutures with 2-0 silk [13]. […] In the drug escalation study, laparotomy and cecal abrasion were carried out as above as well as sub-dermal placement of the osmotic pumps.
Groups of 5 animals were given 0.1, 1.0 or 3.0 mg/kg animal weight of drug/day via osmotic pumps (Alzet Osmotic Pump 1002, Cupertino, CA) for eight days prior to sacrifice. The volume delivered/day was 6 ul of drug. Control mice underwent induction with anesthesia and laparotomy only. In addition, 5 animals underwent laparotomy and placement of the osmotic pumps which were filled with “drug vehicle (DMSO)” alone i.e., no drug. After 8 days of drug treatment, mice were euthanized under isofluorane anesthesia followed by cervical dislocation. Adhesions were examined by two independent practitioners. […]
Intestinal tissue was placed in Tissue-Tek O.C.T. Compound (Sakura Finetek, Torrance, CA) and immediately frozen in liquid nitrogen. […] Slides were mounted with DAPI Fluoromount-G (Southern Biotech) and fluorescence images were taken with a Zeiss epi-fluorescence microscope. […]

Consider `CC(=O)Nc1cccc(-n2c(=O)n(C3CC3)c(=O)c3c(Nc4ccc(I)cc4F)n(C)c(=O)c(C)c32)c1` [trametinib], for which, in the data set “Solubility in water”, the solubility in water entry is “minimally soluble in water”. Besides, in the data set on C57BL/6 mice (1.0 mg dose, eight day period of drug delivery), the “average decrease in weight” value was 2.2%. Moreover, the “average increase in weight” value in the data set with C57BL/6 mice (3.0 mg dose, eight day period of drug delivery) amounted to 0.5%. In addition, the “wound closure and healing at laparotomy site” value with C57BL/6 mice (highest drug dose (3 mg/kg/day)) was “no effect on wound closure and healing”. In addition, the “concentration blocking TGF-β induced increases of phospho-Erk1/2, FNEDA, αSMA and p-SMAD2 (linker)” value in data set [1] is on record as at most 2 nM. Further, the “effect of drug alone on cell appearance / toxicity” value in data set [2] was “no effect and no apparent toxic effects”.

As for `N#CC(=C(/N)Sc1ccccc1N)/C(C#N)=C(\N)Sc1ccccc1N` [U0126], the “effect on rat peritoneal mesothelial/mesenchymal transition induced by TGF-β” value in data set [3] is “blocked”.
